Results as given in PubChem BioAssay (NCI).
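Growth conditions: 96-well plates. Treatment: test compound, 48 hours, 5 concentrations. Analysis: linear interpolation between bracketing concentrations; unreached endpoints set to highest concentration. The concentration for full growth arrest is given as TGI.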 Where a SMILES comes first, the peptide text is derived from it. Bridges are numbered along the chain shown (N, C = ends). [ ]: non-standard residue; d: D form. The star is where a group is joined. Cya = N[CH](CS(=O)(=O)O)C(=O)O; X49 = CC(C)CCCCCCCC(O)CC(=O)*; GABA = NCCCC(=O)O

Experiments:
Assay in all cases: NCI anticancer screen, dose series, 48 h
HOP-92 NSCLC = test system: HOP-92 NSCLC
UACC-62 melanoma = test system: UACC-62 melanoma
SK-OV-3 ovarian = test system: SK-OV-3 ovarian
OVCAR-5 ovarian = test system: OVCAR-5 ovarian
NCI-H522 lung = test system: NCI-H522 lung
COLO 205 colon = test system: COLO 205 colon
A498 renal = test system: A498 renal
MOLT-4 leukemia = test system: MOLT-4 leukemia
IGROV1 ovarian = test system: IGROV1 ovarian
SNB-19 CNS = test system: SNB-19 CNS
K-562 leukemia = test system: K-562 leukemia
HCT-116 colon = test system: HCT-116 colon
SF-539 CNS = test system: SF-539 CNS
PC-3 prostate = test system: PC-3 prostate
SK-MEL-28 melanoma = test system: SK-MEL-28 melanoma
UO-31 renal = test system: UO-31 renal
SNB-75 CNS = test system: SNB-75 CNS
LOX IMVI melanoma = test system: LOX IMVI melanoma
SF-295 CNS = test system: SF-295 CNS
MDA-MB-435 = test system: MDA-MB-435
HT29 colon = test system: HT29 colon
KM12 colon = test system: KM12 colon
TK-10 renal = test system: TK-10 renal
786-0 renal = test system: 786-0 renal
SK-MEL-5 melanoma = test system: SK-MEL-5 melanoma
OVCAR-4 ovarian = test system: OVCAR-4 ovarian
SN12C renal = test system: SN12C renal
MALME-3M melanoma = test system: MALME-3M melanoma
U251 CNS = test system: U251 CNS
NCI-H460 lung = test system: NCI-H460 lung
T-47D breast = test system: T-47D breast
A549 NSCLC = test system: A549 NSCLC
SK-MEL-2 melanoma = test system: SK-MEL-2 melanoma
ACHN renal = test system: ACHN renal
SW-620 colon = test system: SW-620 colon
HCC-2998 colon = test system: HCC-2998 colon
NCI-H226 lung = test system: NCI-H226 lung
HCT-15 colon = test system: HCT-15 colon
HOP-62 NSCLC = test system: HOP-62 NSCLC
HS 578T breast = test system: HS 578T breast
MCF7 breast = test system: MCF7 breast
MDA-N = test system: MDA-N
OVCAR-3 ovarian = test system: OVCAR-3 ovarian
CCRF-CEM leukemia = test system: CCRF-CEM leukemia
OVCAR-8 ovarian = test system: OVCAR-8 ovarian
M14 melanoma = test system: M14 melanoma
BT-549 breast = test system: BT-549 breast
DU-145 prostate = test system: DU-145 prostate
HL-60(TB) leukemia = test system: HL-60(TB) leukemia
EKVX NSCLC = test system: EKVX NSCLC
CAKI-1 renal = test system: CAKI-1 renal
RPMI-8226 leukemia = test system: RPMI-8226 leukemia
UACC-257 melanoma = test system: UACC-257 melanoma
NCI/ADR-RES ovarian = test system: NCI/ADR-RES ovarian
NCI-H23 lung = test system: NCI-H23 lung
SR leukemia = test system: SR leukemia
MDA-MB-231 breast = test system: MDA-MB-231 breast
SF-268 CNS = test system: SF-268 CNS
RXF 393 renal = test system: RXF 393 renal

Measured: TGI

CC(C)CCCCCCCC(O)CC(=O)NC(CS(=O)(=O)O)C(=O)NC(CC(C)C)C(=O)NCCCC(=O)NC(Cc1cnc[nH]1)C(=O)NC(C)C(=O)NC1C(=O)NC(C(C)O)C(=O)NC(Cc2cnc[nH]2)C(=O)NC(C)C(=O)NC(C(C)O)C(=O)OC1C (configuration not stated) (X49-[Cya]L[GABA]HATTHAT; ester 6-C; configuration not given here)
not listed: SF-268 CNS | RXF 393 renal
> 25 µM: all other assays above

Cc1c(C)c(S(=O)(=O)N(CCCCCCN)OCCCN)c(C)c2c1OC(C)(C)CC2
25.6 µM: ACHN renal
> 47.1 µM: T-47D breast
> 51.4 µM: OVCAR-5 ovarian
12.9 µM: SNB-19 CNS
> 28.3 µM: K-562 leukemia
22.6 µM: SF-295 CNS
24.9 µM: HT29 colon
29 µM: A549 NSCLC
26 µM: OVCAR-8 ovarian
3.8 µM: HCC-2998 colon
> 26.5 µM: COLO 205 colon
7.68 µM: RPMI-8226 leukemia
15 µM: MDA-MB-435
9.95 µM: NCI-H522 lung
64 µM: DU-145 prostate
22.5 µM: SF-268 CNS
15.6 µM: RXF 393 renal
4.63 µM: HCT-116 colon
33.2 µM: NCI/ADR-RES ovarian
4.34 µM: MALME-3M melanoma
4.62 µM: IGROV1 ovarian
8.37 µM: OVCAR-4 ovarian
3.75 µM: KM12 colon
24 µM: NCI-H23 lung
13 µM: HS 578T breast
6.13 µM: SK-MEL-2 melanoma
> 100 µM: SF-539 CNS | SN12C renal | MCF7 breast
10.4 µM: MOLT-4 leukemia
30.6 µM: UACC-62 melanoma
17.3 µM: PC-3 prostate
27.5 µM: NCI-H226 lung
> 35.6 µM: SK-MEL-5 melanoma
7.53 µM: OVCAR-3 ovarian
> 20.7 µM: U251 CNS
32.8 µM: TK-10 renal
30.9 µM: MDA-N
8.45 µM: NCI-H460 lung
11 µM: SNB-75 CNS
> 53.1 µM: CAKI-1 renal
34.7 µM: HCT-15 colon
15.2 µM: HOP-92 NSCLC
15.9 µM: HOP-62 NSCLC
19.8 µM: EKVX NSCLC
40.3 µM: A498 renal
11.9 µM: 786-0 renal
71.9 µM: SK-MEL-28 melanoma
28.6 µM: UO-31 renal | BT-549 breast
29.7 µM: UACC-257 melanoma
> 31.6 µM: SR leukemia
> 20.9 µM: CCRF-CEM leukemia
25.2 µM: SK-OV-3 ovarian
20.1 µM: MDA-MB-231 breast
> 64.1 µM: M14 melanoma

CC1OC2=N[C@@H]1C(=O)N[C@@H](Cc1ccccc1)C1=N[C@H](C(=O)N[C@@H](Cc3ccccc3)C3=N[C@H](C(=O)N[C@H]2Cc2ccccc2)C(C)O3)C(C)O1 (some centres not stated)
39.4 µM: LOX IMVI melanoma
69.5 µM: TK-10 renal
69.2 µM: SK-MEL-28 melanoma
68.5 µM: OVCAR-5 ovarian
71.2 µM: UACC-257 melanoma
72 µM: MDA-MB-231 breast
47.4 µM: SF-539 CNS
34.4 µM: COLO 205 colon
73.2 µM: PC-3 prostate
80.1 µM: UACC-62 melanoma
88.6 µM: CAKI-1 renal
52.3 µM: SK-MEL-2 melanoma
34.1 µM: RPMI-8226 leukemia
52.5 µM: HT29 colon
57.6 µM: MALME-3M melanoma
68.7 µM: K-562 leukemia
59.7 µM: HOP-92 NSCLC
57.8 µM: SK-MEL-5 melanoma
81.7 µM: MDA-MB-435
75.8 µM: OVCAR-3 ovarian
93.9 µM: NCI-H226 lung
62.6 µM: SR leukemia
91.9 µM: A498 renal
65.8 µM: HS 578T breast
56.4 µM: M14 melanoma
not listed: NCI-H522 lung | MOLT-4 leukemia | SNB-19 CNS | SNB-75 CNS | 786-0 renal | U251 CNS | NCI-H460 lung | CCRF-CEM leukemia | HL-60(TB) leukemia | SF-268 CNS
> 100 µM: all other assays above

COc1cc2c(cc1OC)C1c3ccccc3CCCN1CC2 (configuration not stated)
not listed: NCI-H460 lung | RXF 393 renal
> 100 µM: all other assays above

COc1ccccc1NCc1nnc(CCCCCCCCc2nnc(CNc3ccccc3OC)o2)o1
not listed: IGROV1 ovarian | SF-539 CNS | SK-MEL-28 melanoma | SW-620 colon | NCI-H226 lung | HL-60(TB) leukemia
> 100 µM: all other assays above
